A word on the melting point: it is the temperature, or range, at which the solid turns liquid.

The text below walks through data of a melting point compilation (Tetko et al.; mined from patent text by program, amines drawn as free bases though some values may be those of a salt).

With `N#Cc1ccc(C(=O)N2CCC3(CC2)C(=O)NC(=O)N3Cc2ccccc2)cc1`, the melting point was in the range of 207 to 209 °C. The result for `Oc1c(Cl)cc(Cn2c(S)nc3ccccc32)cc1Cl` reads 246 °C; that for `NC(=O)c1[nH]cnc1OC(=O)C=Cc1cccc([N+](=O)[O-])c1`, 197 °C; that for `O=C1NCc2c(-c3ccccc3)cccc2N1c1ccccc1`, 234 to 235 °C.

In the case of `CN1C(=O)C(NC(=O)NC2CCCCC2)N=C(c2ccccc2)c2ccccc21` (stereo not drawn), the melting point is 287 to 288 °C. The result for `OCC(CO)CCOc1ccccc1` reads 71 to 73 °C; that for `CCOC(=O)C(=O)Nc1nc(C(C)C)cs1`, 54 to 57 °C; that for `CCCCOc1cc(/C=C(\OCC)C(=O)O)ccc1CCCc1ccc(OS(=O)(=O)CCCC)c(OC)c1`, 75 °C. As to `Cc1ccccc1NC(=O)C(Cl)Cl`, the melting point lay within 192 to 195 °C. The result for `O=C(NC(O)C(=O)O)c1c(F)cccc1F` (stereo not drawn) reads 125 to 127 °C; that for `CCCN(c1nc(-c2ccc(OC)cc2Cl)c(C)s1)c1cc(C(C)=O)ccc1OC`, 50 °C; that for `COc1cccc(CNC(=O)[C@@H]2CCCN(c3cccc4c3C(=O)N(Cc3ccncc3)C4=O)C2)c1OC`, 199 to 200 °C. The result for `O=C1Cc2ccccc2C(c2ccccc2F)N1` (stereo not drawn) reads 167 to 169 °C.

`N[C@@H](Cc1ccc(C(F)(F)F)c(F)c1)[C@H](O)c1ccc(F)cc1` (racemic) showed a melting point of 86 to 87 °C. The figure for `CCC(CC)NC(=O)NC/C=C\COc1cc(CN2CCCCC2)ccn1` is 82 to 84 °C. The result for `CCOC(=O)Oc1ccc(S(=O)(=O)N2c3ccc(Cl)cc3-n3cccc3C2CC)cc1` (stereo not drawn) reads 117 to 119 °C; that for `CN(C)c1nc2sc3c(NCc4cccnc4)ncnc3c2c2c1COC(C)(C)C2`, 250 to 252 °C; that for `Cn1c(CC(=O)O)ccc1C(=O)c1cccs1`, 141 to 142 °C. The result for `O=S(=O)(NC1CCCCC1)c1ccc2c(c1)S(=O)(=O)NC1CCCN21` (stereo not drawn) reads 195 to 197 °C; that for `CNC(=O)c1cc2c(nc(C)n2C)c2c1CCC(OC)(c1ccccc1)O2` (stereo not drawn), 237 to 239 °C; that for `CCc1ccccc1NC(=O)c1ccccc1SSc1ccccc1C(=O)Nc1ccccc1CC`, 255 to 256 °C.

In turn, `Cc1ccc(S(=O)(=O)OCC2Cc3c[nH]c4cccc(c34)C(=O)N2)cc1` (stereo not drawn) gave a melting point of 175 to 178 °C. The result for `CC(C)C(=O)N(O)C(C)c1cc(C(C)(C)C)c(O)c(C(C)(C)C)c1` (stereo not drawn) reads 147 to 148 °C; that for `CS(=O)(=O)c1ccc(C2=C(c3ccc(Cl)cc3)CCC2)cc1`, 128 °C. The result for `O=C(OC1CCN(Cc2ccccc2)CC1)c1ccc(I)cc1` reads 77 to 78 °C; that for `O=C1COc2cc(NC(=O)C(=O)N3CCC(Cc4ccccc4)CC3)ccc2N1`, 123 to 126 °C. The result for `Cn1c(N2CCOC(c3nc(-c4ccccc4)no3)C2)nc(-c2ccncn2)cc1=O` (stereo not drawn) reads 167 °C. Compound `O=C(CCl)Nc1cccc(C(=O)Cl)c1` yielded a melting point of 106 to 108 °C.

`COC(=O)c1cnc(OCc2ccccn2)nc1NCc1ccc(OC)c(Cl)c1` registered a melting point of 135 to 136 °C. The result for `CCCc1nn(C)c2c(=O)n(CCCc3cccc(OC(C)(C)C(=O)O)c3)c(C)nc12` reads 78 to 80 °C.

In turn, `NCCNC(=O)Cc1ccsc1` showed a melting point of 89.7 to 92.1 °C. The result for `CC(c1ccc(OCC(=O)Nc2ccc(-c3ccc(Cl)cc3)cc2)cc1)N1CCCC1` (stereo not drawn) reads 156 to 158 °C; that for `O=Cc1ccccc1-c1ccc(CBr)cc1`, 63 to 66 °C; that for `C[C@@H]1CCN(C(=O)CC#N)C[C@@H]1N(C)c1ncnc2sccc12`, 74.3 °C. `O=C(O)C1CCCC1c1ccc2c(c1)OC[C@H](Cc1ccccc1)[C@H]2O` (relative stereo): the melting point lay in the range of 129 to 130 °C. `Cc1cc(CNC(=O)c2nc3scc(COCc4ccc(C(=O)O)cc4)c3c(=O)[nH]2)ccc1F` displayed a melting point of 246 to 248 °C.

`Cn1c(C(F)(F)F)ccc(-c2ccc(F)cc2F)c1=O` showed a melting point of 123 to 124 °C.

As to `CC1(C)OC(c2ccc(S(N)(=O)=O)cc2)=C(c2cccc(C(F)(F)F)c2)C1=O`, the melting point lay within 129 to 130 °C. The result for `Clc1csc(-c2nc(COc3ccc(CCCn4ccnc4)cc3)co2)c1` reads 69 to 70 °C.

Regarding `CCC(Oc1ccc(C(C)(C)CC)cc1C(C)(C)CC)C(=O)Nc1cc(O)c(NC(=O)c2ccccc2NS(C)(=O)=O)cc1Cl` (stereo not drawn), the melting point fell in the range of 199 to 201 °C. The result for `Cc1cc2c(nc1C(O)c1ccccc1)CCCCC2` (stereo not drawn) reads 130 to 132 °C. Regarding `COc1cc2nc(N3CCN(c4nc5ccccc5o4)CC3)nc(N)c2cc1OC`, the melting point was greater than 250 °C. Regarding `CC(C)CNC(=O)c1ccc(C2CC2c2ccc(Cl)cc2)cc1` (stereo not drawn), the melting point was found to be 110 °C. The figure for `CC(CCOc1ccccc1NS(C)(=O)=O)N1CCC(OC(c2ccccc2)c2ccccc2)CC1` (stereo not drawn) is 114 to 116 °C. The compound `O=Cc1ccc(F)cc1-c1noc2ccc(F)cc12` displayed a melting point of 165 to 166 °C. The figure for `CN1CCc2c(c(P(=O)(O)O)cc3[nH]c(=O)c(=O)[nH]c23)C1` is greater than 325 °C; for `N#CC(C(=O)c1ccc(NS(=O)(=O)C(F)(F)F)cc1)=C1CCCCN1` it is 197 °C; for `CCCCOc1ncc(I)cc1C(N)=O` it is 163 to 166 °C. On to `C[Si](C)(C)ON1C(=O)CCC1=O`, for which the melting point was in the range of 55 to 57 °C.

In turn, `C=Cc1ccnc2c([N+](=O)[O-])cccc12` came in with a melting point of 134 °C.

Compound `CCOCc1nc2c(N)nc(C)c(C)c2n1CC(C)(C)O` registered a melting point of 190 to 193 °C. The figure for `CCc1nc2c(cnn2CC)c(NC2CCOCC2)c1CNC(=O)c1cccc(C(=O)NCc2ccc(C)c(-c3cccc(C=O)c3)c2)c1` is 114 to 117 °C.

With `NCc1ccc(C(=O)CCCN2CCC(c3ccc(Cl)cc3)CC2)cc1`, the melting point lay within 94 to 96 °C. For `O=C(O)CCc1cn(Cc2ccc(OCc3ccc4ccccc4n3)cc2)nc1-c1ccc(F)cc1`, the melting point is 178 to 179 °C. `C=CCSc1nnc(OC)c2ccccc12` gave a melting point of 32 to 34 °C. The figure for `CC(C)(C)c1nn(-c2c(Cl)cc(C(F)(F)F)cc2Cl)c(N)c1Br` is 228 to 231 °C.

On to `COC(=O)c1cn2c(n1)COc1cc(C)ccc1-2`, for which the melting point was in the range of 180 to 181 °C. Take `COC(=O)c1cc(C(=O)c2c(C)c(N(C)C(=O)c3cccc(OC)c3)c3ccccn23)ccc1[N+](=O)[O-]`: the melting point turned out to be 158 °C.

In turn, `Cc1sc(C2=NOC(c3cc(Cl)cc(Cl)c3)(C(F)(F)F)C2)cc1Br` (stereo not drawn) returned a melting point of 110 to 112 °C.

Turning to `O=C(CC(=O)C(F)F)c1cccs1`, the melting point fell in the range of 78 to 80 °C. On to `O=C(NN=C(c1ccc(Cl)cc1)c1ccc(OC(F)(F)C(Cl)Cl)cc1)c1ccccc1`, for which the melting point fell in the range of 121 to 122 °C. The result for `CC(=O)OC1CSC(Oc2cncc(-c3cnn(C)c3)c2)C(OC(C)=O)C1OC(C)=O` (stereo not drawn) reads 68 °C; that for `Cc1c(Cl)sc2c1c(-c1ccccc1F)nc(=O)n2C`, 175 to 176 °C.
